Assay [1] deals with Staphylococcus aureus lipases. Further details: method as in PMID 17559400. The following applies: cited from earlier work.
A further assay concerns A. baumannii (AB5075). Kind of assay: Growth curve assay.
Assay [2] concerns A. baumannii strain (AB5075). The assay is described as follows: Tetrazolium/formazan (TTC) assay, effective inhibitory concentration. It is filed as cell-based, Acinetobacter baumannii.
Assay [3] concerns A. baumannii strain (AB5075). The assay is described as follows: Broth microdilution MIC. The following applies: Acinetobacter baumannii, 24 h. (Dilution methods test growth across graded concentrations, often in twofold steps.)

Molecules are shown by their SMILES.

As usually defined, the IC50 is the concentration that inhibits the measured activity by half. Take `CC(C)=CCC/C(C)=C/CC/C(C)=C/CO` [Farnesol]: the half-maximal inhibitory concentration (IC50) in assay [1] was 570 µM.
By MIC is commonly meant the lowest concentration found to suppress growth. The low end stands for a more susceptible organism, the high end for a less susceptible organism. For `CCCCCCCCCCC[C@@H](C[C@@H]1OC(=O)[C@H]1CCCCCC)OC(=O)[C@H](CC(C)C)NC=O` [Orlistat, orlistat], the “growth extent versus DMSO” value with A. baumannii (AB5075) (64 µg/mL) is recorded as “not”; in the assay with A. baumannii (AB5075) (128 µg/mL, mid-logarithmic and early stationary phases), “significant reduction in growth extent”. Also, the EIC in assay [2] (TTC assay, lowest concentration preventing red color formation, tested 420–640 µg/mL) is listed as 640 µg/mL. Further, the “direct antimicrobial activity against A. baumannii” value in assay [2] (summary of MIC and EIC) is recorded as “minimal direct antimicrobial activity”. Moreover, the MIC in assay [3] was over 128 µg/mL.

(Values after paper PMC12457599, “Targeting Acinetobacter baumannii lipase by coniferous species through metabolomics supported approach” (Scientific Reports, 2025).)
